Molecular target: T1, recombinant AG1 protein (SEQ ID No:13), E-α-bisabolene synthase (Abies grandis, UniProt O81086)
T1 construct: GST (fusion partner of vector pGEX-4T-2); made in house; host or cells: E. coli XL1-Blue/pGAG1
T1 sequence (O81086 1-817): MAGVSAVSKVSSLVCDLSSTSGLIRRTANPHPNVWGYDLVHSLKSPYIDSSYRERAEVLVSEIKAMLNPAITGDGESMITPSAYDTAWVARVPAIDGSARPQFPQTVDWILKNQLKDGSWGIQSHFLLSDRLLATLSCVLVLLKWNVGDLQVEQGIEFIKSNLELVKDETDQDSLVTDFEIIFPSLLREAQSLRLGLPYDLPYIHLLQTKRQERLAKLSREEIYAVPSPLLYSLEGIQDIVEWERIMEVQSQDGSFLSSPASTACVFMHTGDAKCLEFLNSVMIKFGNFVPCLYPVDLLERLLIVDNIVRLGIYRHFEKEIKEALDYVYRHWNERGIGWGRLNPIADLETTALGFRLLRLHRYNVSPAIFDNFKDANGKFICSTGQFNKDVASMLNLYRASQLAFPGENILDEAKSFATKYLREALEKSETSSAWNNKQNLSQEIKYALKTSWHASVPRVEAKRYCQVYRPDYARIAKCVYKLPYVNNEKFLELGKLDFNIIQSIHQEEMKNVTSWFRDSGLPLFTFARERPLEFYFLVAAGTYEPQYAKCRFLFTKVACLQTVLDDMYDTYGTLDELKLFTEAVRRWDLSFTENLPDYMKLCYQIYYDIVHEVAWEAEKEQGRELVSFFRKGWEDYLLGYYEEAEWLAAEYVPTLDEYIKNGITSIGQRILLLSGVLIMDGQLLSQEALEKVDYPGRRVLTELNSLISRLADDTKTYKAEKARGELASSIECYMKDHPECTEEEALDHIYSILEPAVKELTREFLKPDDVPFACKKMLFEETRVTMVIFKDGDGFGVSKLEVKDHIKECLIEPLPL
Assay: Monoterpene, sesquiterpene and diterpene synthase assays of recombinant AG1 protein expressed in E. coli
Format: biochemical
Settings: extracts of XL1-Blue/pGAG1, 31° C., 2 h
Procedure: Expression of cDNA Clone AG1 (SEQ ID No:12) in E. coli. Plasmid pGAG1 was transformed into E. coli XL1-Blue (Sambrook, J., et al., (1989) Molecular Cloning: A Laboratory Manual (Cold Spring Harbor Lab., Cold Spring Harbor, N.Y.), 2nd Ed). The resulting bacterial strain E. coli XL1-Blue/pGAG1 was grown at 37° C. in 5 ml of LB medium (Sambrock, J., et al., (1989) Molecular Cloning. A Laboratory Manual (Cold Spring Harbor Lab., Cold Spring Harbor, N.Y.), 2nd Ed) supplemented with 100 μg ampicillin/ml and 12.5 μg tetracycline/ml to A600=1.0, then induced by addition of 1 mM isopropyl-1-thio-β-D-galactopyranoside and grown for another 12 h at 20° C. Cells were harvested by centrifugation (2000×g, 10 min) and resuspended in either 1 ml monoterpene synthase assay buffer, 1 ml sesquiterpene synthase assay buffer, or 1 ml diterpene synthase assay buffer (Bohlmann, J., et al., J. Biol. Chem. 272:21784-21792(1997)). […]
Characterization of Products of Recombinant E-α-Bisabolene Synthase Encoded by cDNA Clone AG1 (SEQ ID No:12) in E. coli. […] Mass spectra were compared to those of authentic standards and analyzed by Hewlett-Packard Chemstation software. […]

CC(C)=CCC/C(C)=C/COP(=O)(O)OP(=O)(O)O [geranyl diphosphate, reference compound]
conversion of substrate to terpene olefin: inefficiently converted

CC(C)=CCC/C(C)=C/CC/C(C)=C/CC/C(C)=C/COP(=O)(O)OP(=O)(O)O [geranylgeranyl diphosphate, reference compound]
conversion of substrate to terpene olefin: no diterpene synthase activity

Source: patent US6451576B1, “Sesquiterpene synthases from grand fir (Abies grandis), and methods of use” (Washington State University Research Foundation, priority 1998, dated 2002)
